Biological target: AMPK
Experiment: AMPK activation, enzyme-linked immunosorbent assay
Assay type: biochemical
Procedure: Compounds were assayed for their ability to activate AMPK using an enzyme-linked immunosorbent assay. Reagents and procedures for measuring AMPK activation are well known and kits for AMPK activation assays are commercially available.

EC50	SMILES
1000 to 5000 nM	CS(=O)(=O)c1ccc(N2CCC(NC(=O)c3ccc(C(=O)N4CCN(Cc5ccc(F)cc5)CC4)nc3)CC2)cc1 [Compound 421, 6-(4-(4-fluorobenzyl)piperazine-1-carbonyl)-N-(1-(4-(methylsulfonyl)phenyl)piperidin-4-yl)nicotinamide]
500 to 1000 nM	N#Cc1ccc(CN2CCC(NC(=O)c3ccc(Nc4ccc(Cc5ccccc5)cc4)cn3)CC2)cc1 [Compound 108, 5-(4-benzylphenylamino)-N-(1-(4-cyanobenzyl)piperidin-4-yl)picolinamide]
< 500 nM	N#Cc1ccc(O[C@H]2CC[C@@H](NC(=O)c3ccc(C(=O)N4CCN(Cc5ccc(F)cc5)CC4)nc3)CC2)cc1 [Compound 332, N-((cis)-4-(4-cyanophenoxy)cyclohexyl)-6-(4-(4-fluorobenzyl)piperazine-1-carbonyl)nicotinamide]
< 500 nM	N#Cc1ccc(O[C@H]2CC[C@@H](NC(=O)c3ccc(C(=O)N4CCC(Oc5cccc(NC(=O)C6CC6)c5)CC4)nc3)CC2)cc1 [Compound 434, N-((cis)-4-(4-cyanophenoxy)cyclohexyl)-6-(4-(3-(cyclopropanecarboxamido)phenoxy)piperidine-1-carbonyl)nicotinamide]
< 500 nM	O=C(N[C@H]1CC[C@@H](Oc2ccc(F)cc2)CC1)c1ccc(C(=O)N2CCC(Oc3ccc(F)cc3)CC2)cn1 [Compound 312, N-((cis)-4-(4-fluorophenoxy)cyclohexyl)-5-(4-(4-fluorophenoxy)piperidine-1-carbonyl)picolinamide]
< 500 nM	COc1ccc(C(=O)C2CCN(C(=O)c3ccc(C(=O)N[C@H]4CC[C@@H](Oc5ccc(F)cc5)CC4)nc3)CC2)cc1 [Compound 311, N-((cis)-4-(4-fluorophenoxy)cyclohexyl)-5-(4-(4-methoxybenzoyl)piperidine-1-carbonyl)picolinamide]
1000 to 5000 nM	COc1ccc(C(=O)C2CCN(C(=O)c3ccc(C(=O)N[C@@H]4CCN(Cc5csc(C)n5)C[C@@H]4F)cn3)CC2)cc1 [Compound 427, N-((3S,4R)-3-fluoro-1-((2-methylthiazol-4-yl)methyl)piperidin-4-yl)-6-(4-(4-methoxybenzoyl)piperidine-1-carbonyl)nicotinamide]
< 500 nM	COc1ccc(C(=O)C2CCN(C(=O)c3ccc(C(=O)N[C@@H]4CCN(Cc5ccc(C#N)cc5)C[C@@H]4F)cn3)CC2)cc1 (relative stereo) [Compound 454, N-((cis)-1-(4-cyanobenzyl)-3-fluoropiperidin-4-yl)-6-(4-(4-methoxybenzoyl)piperidine-1-carbonyl)nicotinamide]
< 500 nM	N#Cc1ccc(O[C@H]2CC[C@@H](NC(=O)c3ccc(C(=O)N4CCC(Oc5ccc(C(F)(F)F)cc5)CC4)cn3)CC2)cc1F [Compound 199, N-((cis)-4-(4-cyano-3-fluorophenoxy)cyclohexyl)-5-(4-(4-(trifluoromethyl)phenoxy)piperidine-1-carbonyl)picolinamide]
< 500 nM	COc1ccc(C(=O)C2CCN(C(=O)c3ccc(C(=O)N[C@@H]4CCN(Cc5cc(C)on5)C[C@@H]4F)cn3)CC2)cc1 [Compound 426, N-((3S,4R)-3-fluoro-1-((5-methylisoxazol-3-yl)methyl)piperidin-4-yl)-6-(4-(4-methoxybenzoyl)piperidine-1-carbonyl)nicotinamide]
< 500 nM	COc1ccc(C(=O)C2CCN(C(=O)c3ccc(C(=O)N[C@@H]4CCN(Cc5ccc(OC(F)(F)F)cc5)C[C@H]4F)cn3)CC2)cc1 (relative stereo) [Compound 350, N-((trans)-3-fluoro-1-(4-(trifluoromethoxy)benzyl)piperidin-4-yl)-6-(4-(4-methoxybenzoyl)piperidine-1-carbonyl)nicotinamide]
< 500 nM	N#Cc1ccc(OC2CCN(C(=O)c3ccc(C(=O)N[C@H]4CC[C@@H](Oc5ccc(C#N)cc5)CC4)cn3)CC2)cc1 [Compound 321, N-((cis)-4-(4-cyanophenoxy)cyclohexyl)-6-(4-(4-cyanophenoxy)piperidine-1-carbonyl)nicotinamide]
< 500 nM	N#Cc1ccc(OC2CCN(C(=O)c3ccc(C(=O)N[C@H]4CC[C@@H](Oc5ccc(F)cc5)CC4)nc3)CC2)cc1 [Compound 303, 5-(4-(4-cyanophenoxy)piperidine-1-carbonyl)-N-((cis)-4-(4-fluorophenoxy)cyclohexyl)picolinamide]
< 500 nM	COc1ccc(C(=O)C2CCN(C(=O)c3ccc(C(=O)N[C@@H]4CCN(Cc5ccc(C#N)c(F)c5)C[C@H]4F)cn3)CC2)cc1 (relative stereo) [Compound 354, N-((trans)-1-(4-cyano-3-fluorobenzyl)-3-fluoropiperidin-4-yl)-6-(4-(4-methoxybenzoyl)piperidine-1-carbonyl)nicotinamide]
< 500 nM	N#Cc1ccc(O[C@H]2CC[C@@H](NC(=O)c3ccc(C(=O)N4CCC(C(=O)c5ccc(N6CCCC6)cc5)CC4)nc3)CC2)cc1 [Compound 442, N-((cis)-4-(4-cyanophenoxy)cyclohexyl)-6-(4-(4-(pyrrolidin-1-yl)benzoyl)piperidine-1-carbonyl)nicotinamide]
< 500 nM	N#Cc1ccc(CN2CCC(NC(=O)c3ccc(C(=O)N4CCC(Oc5ccc(C#N)cc5)CC4)nn3)CC2)cc1 [Compound 388, N-(1-(4-cyanobenzyl)piperidin-4-yl)-6-(4-(4-cyanophenoxy)piperidine-1-carbonyl)pyridazine-3-carboxamide]
< 500 nM	N#Cc1ccc(CN2CCC(NC(=O)c3ccc(C(=O)N4CCC(Cc5ccccc5)CC4)cn3)CC2)cc1 [Compound 124, 5-(4-benzylpiperidine-1-carbonyl)-N-(1-(4-cyanobenzyl)piperidin-4-yl)picolinamide]
< 500 nM	N#Cc1ccc(OC2CCN(C(=O)c3ccc(C(=O)N[C@H]4CC[C@@H](Oc5ccc(F)cc5)CC4)cn3)CC2)cc1 [Compound 324, 6-(4-(4-cyanophenoxy)piperidine-1-carbonyl)-N-((cis)-4-(4-fluorophenoxy)cyclohexyl)nicotinamide]
< 500 nM	O=C(N[C@H]1CC[C@@H](Oc2ccc(F)cc2)CC1)c1ccc(C(=O)N2CCC(C(=O)c3ccc(F)cc3)CC2)cn1 [Compound 304, 5-(4-(4-fluorobenzoyl)piperidine-1-carbonyl)-N-((cis)-4-(4-fluorophenoxy)cyclohexyl)picolinamide]
< 500 nM	COc1ccc(C(=O)C2CCN(C(=O)c3ccc(C(=O)N[C@H]4CC[C@@H](Oc5ccc(F)cc5)CC4)cn3)CC2)cc1 [Compound 316, N-((cis)-4-(4-fluorophenoxy)cyclohexyl)-6-(4-(4-methoxybenzoyl)piperidine-1-carbonyl)nicotinamide]
< 500 nM	N#Cc1ccc(CN2CCc3ccc(NC(=O)c4ccc(C(=O)N5CCN(Cc6ccc(F)cc6)CC5)cn4)cc3C2)cc1 [Compound 132, N-(2-(4-cyanobenzyl)-1,2,3,4-tetrahydroisoquinolin-7-yl)-5-(4-(4-fluorobenzyl)piperazine-1-carbonyl)picolinamide]
< 500 nM	COc1ccc(C(=O)C2CCN(C(=O)c3ccc(C(=O)N[C@H]4CC[C@@H](Oc5cc(F)cc(F)c5)CC4)nc3)CC2)cc1 [Compound 300, N-((cis)-4-(3,5-difluorophenoxy)cyclohexyl)-5-(4-(4-methoxybenzoyl)piperidine-1-carbonyl)picolinamide]
< 500 nM	CC(=O)c1ccc(OC2CCN(C(=O)c3ccc(C(=O)NC4CCC(Oc5ccc(C#N)cc5)CC4)cn3)CC2)cc1 (stereo not shown) [Compound 402, 6-(4-(4-acetylphenoxy)piperidine-1-carbonyl)-N-(4-(4-cyanophenoxy)cyclohexyl)nicotinamide]
< 500 nM	COc1ccc(C(=O)C2CCN(C(=O)c3ccc(C(=O)N[C@@H]4CCN(Cc5ccc(OC(C)C)cc5)C[C@H]4F)cn3)CC2)cc1 (relative stereo) [Compound 353, N-((trans)-3-fluoro-1-(4-isopropoxybenzyl)piperidin-4-yl)-6-(4-(4-methoxybenzoyl)piperidine-1-carbonyl)nicotinamide]
< 500 nM	N#Cc1ccc(CN2CC[C@@H](NC(=O)c3ccc(C(=O)N4CCC(Oc5ccc(S(=O)(=O)C(F)(F)F)cc5)CC4)nc3)C(F)C2)cc1 (stereo in doubt) [Compound 451, N-((3S,4R)-1-(4-cyanobenzyl)-3-fluoropiperidin-4-yl)-6-(4-(4-(trifluoromethylsulfonyl)phenoxy)piperidine-1-carbonyl)nicotinamide]
